Test results as given in PMC9238401, “Peptide Conjugates Derived from flg15, Pep13, and PIP1 That Are Active against Plant-Pathogenic Bacteria and Trigger Plant Defense Responses” (Applied and Environmental Microbiology, 2022).
Marks after values point to notes of the source that are not given here. Non-standard residues stand in square brackets, D forms with d. Residues, ends and D or L forms follow the SMILES beside them. *: point of attachment. Butyryl = CCCC(=O)*

What was measured:
tobacco leaves = assay: Effect of peptide infiltration on tobacco leaves (phytotoxicity); format: in vivo
Summary of the method: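 Phytotoxicity was scored as necrotic lesion diameter 48 h post-infiltration. Each peptide was infiltrated at 50, 150 or 250 μM into fully expanded tobacco leaf mesophyll, on ≥3 leaves from different plants, alongside water and same-molar melittin controls.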

[1] = tested on: tomato plants cv. Rio Grande, defense-related genes; assay: Induction of defense gene expression in tomato plants (RT-qPCR); format: in vivo; conditions: peptide sprayed at 125 μM, leaves 24 h after application, ΔΔCT vs actin and nontreated control; for PR1 expression, fold induction: above 2 = overexpression
Experimental: The capacity to induce the expression of genes related to defense response in tomato plants was evaluated for the peptide conjugates flg15-BP387, flg15-BP475, and PIP1-BP475 and the monomers flg15 and PIP1 (Table 2).
Seeds of tomato cv. Rio Grande plants were sown in hydroponic seed plugs (rockwool) and germinated and grown in an environmentally controlled greenhouse at 25 ± 2°C (day) and 18 ± 2°C (night), with a minimum relative humidity of 60% and with a photoperiod of 16 h light and 8 h dark. Then, 2-week-old seedlings (two cotyledons) were transplanted into rockwool plugs (7.5 × 7.5 × 6.5 cm; Gordan Iberica, Spain). Tomato plants were maintained until use under the same environmental conditions.
The 2-week-old tomato plants cv. Rio Grande were sprayed with aqueous solutions of the peptides flg15-BP387, flg15-BP475, PIP1-BP475, flg15, and PIP1 at 125 μM until the runoff point. […] Water-sprayed plants were used as nontreated controls (NTC). The experimental design consisted of three replicates of three plants per treatment. Leaf samples were collected 24 h after product application and processed to extract RNA for reverse transcriptase quantitative PCR (RT-qPCR) assays. Plant material was roughly ground in liquid nitrogen and was transferred into tubes with two glass beads. Afterward, the frozen samples were finely ground using the TissueLyser II system (Qiagen, Hilden, Germany) at a frequency of 30 Hz for 1 min. Total RNA was extracted from leaves (100 mg) using PureLink plant RNA reagent (Invitrogen, Life Technologies) according to the manufacturer’s manual. The RNA was solubilized in RNase-free water (Ambion, Thermo Fisher Scientific, USA) and was routinely subjected to DNase treatment (Ambion Turbo DNA-free; Invitrogen Life Technologies, Carlsbad, CA, USA) to remove any contaminant DNA. In each step, the RNA was quantified using a NanoDrop ND-1000 spectrophotometer (Nanodrop Technologies, Wilmington, DE, USA). First-strand cDNA was generated from leaf RNA using reverse transcriptase (high-capacity cDNA reverse transcription kit; Applied Biosystems, Foster City, CA, USA) according to the manufacturer’s manual.
To test gene defense induction in the treated tomato plants, a quantitative PCR (qPCR) assay was performed. qPCR was carried out in a fluorometric thermal cycler (7500 Fast real-time PCR system; Applied Biosystems, USA) by using a Mix SYBR green PCR master mix (Applied Biosystems, Foster City, CA, USA) as previously described ([49]). Melting curve analysis was performed after each amplification to verify amplification specificity. A constitutive gene (actin) was used as a reference control ([52]), and the following genes implicated in plant defense response were analyzed using the previously described primers: pathogenesis-related protein-1 (PR1) and chitinase A (PR3) ([81]), subtilisin-like protease P69G (PR7), peroxidase 1 (PR9), WRKY3 transcription factor (WRKY3), hairpin-induced protein-like (Harp), blue-copper-binding protein gene (BCB) and ethylene responsive transcription factor (ERF) ([71]), and basic β-1,3-endoglucanase (GluB) ([52]). The primer concentration was 100 nM for all the genes except for the actin gene, for which the concentration was 300 nM. A calibration curve was prepared by cloning the corresponding target sequence in the pSpark cloning vector (Canvax, Córdoba, Spain), which was used to transform Escherichia coli DH5α. Plasmids were purified (Qiagen Iberia, S.L., Madrid, Spain), plasmid copies were quantified, and decimal dilutions were prepared.

[2] = 100 μL infiltrated into mesophyll, lesion diameter 48 h after infiltration, at least three leaves, ± confidence interval (α = 0.05)

| Compound | Size of the lesions in infiltrated tobacco leaves at 50 μM (tobacco leaves; [2]) | Size of the lesions in infiltrated tobacco leaves at 150 μM (tobacco leaves; [2]) | Size of the lesions in infiltrated tobacco leaves at 250 μM (tobacco leaves; [2]) | BCB expression, fold induction [1] | ERF expression, fold induction [1] | GluB expression, fold induction [1] | Harp expression, fold induction [1] | PR3 expression, fold induction [1] | PR7 expression, fold induction [1] | PR9 expression, fold induction [1] | WRKY3 expression, fold induction [1] | PR1 expression, fold induction [1] | Size of the lesions in infiltrated tobacco leaves at 50 μM (tobacco leaves; in vivo) | Size of the lesions in infiltrated tobacco leaves at 150 μM (tobacco leaves; in vivo) | Size of the lesions in infiltrated tobacco leaves at 250 μM (tobacco leaves; in vivo) |
| --- | --- | --- | --- | --- | --- | --- | --- | --- | --- | --- | --- | --- | --- | --- | --- |
| CCCC(=O)NCCCC[C@H](NC(=O)[C@H](CCCCN)NC(=O)[C@H](CC(C)C)NC(=O)[C@@H](NC(=O)[C@H](CCCCN)NC(=O)[C@H](CCCCN)NC(=O)[C@@H](Cc1ccccc1)NC(=O)[C@H](CC(C)C)NC(=O)[C@H](CCCCN)NC(=O)[C@H](CCCCN)NC(=O)[C@H](C)NC(=O)[C@@H](NC(=O)[C@H](CCC(N)=O)NC(=O)[C@H](CC(C)C)NC(=O)CNC(=O)[C@H](C)NC(=O)[C@H](C)NC(=O)[C@H](CC(=O)O)NC(=O)[C@H](CC(=O)O)NC(=O)[C@H](CCCCN)NC(=O)[C@H](C)NC(=O)[C@H](CO)NC(=O)[C@H](CC(N)=O)NC(=O)[C@@H](NC(=O)[C@H](CCCNC(=N)N)NC(C)=O)[C@@H](C)CC)[C@@H](C)CC)[C@@H](C)CC)C(=O)N[C@@H](CC(C)C)C(N)=O [flg15-BP475] (Ac-RINSAKDDAAGLQIAKKL[dF]KKILKK(Butyryl)L-NH2) | 0.60 ± 0 cm | 1.20 ± 0 cm | 1.37 ± 0.06 cm | 5.84 ± 1.38^d fold | 0.67 ± 0.15^d fold | 4.31 ± 0.82^d fold | 3.68 ± 0.91^d fold | 10.96 ± 1.85^d fold | 5.82 ± 0.78^d fold | 3.83 ± 0.25^d fold | 1.16 ± 0.26 fold | 2.02 ± 0.07^d fold |  |  |  |
| CCCC(=O)NCCCC[C@H](NC(=O)[C@H](CCCCN)NC(=O)[C@H](CC(C)C)NC(=O)[C@@H](NC(=O)[C@H](CCCCN)NC(=O)[C@H](CCCCN)NC(=O)[C@@H](Cc1ccccc1)NC(=O)[C@H](CC(C)C)NC(=O)[C@H](CCCCN)NC(=O)[C@H](CCCCN)NC(=O)[C@H](Cc1c[nH]cn1)NC(=O)[C@@H](NC(=O)[C@H](Cc1c[nH]cn1)NC(=O)[C@@H](NC(=O)CNC(=O)[C@H](Cc1ccc(O)cc1)NC(C)=O)[C@@H](C)CC)[C@@H](C)O)[C@@H](C)CC)C(=O)N[C@@H](CC(C)C)C(N)=O [PIP1-BP475] (Ac-YGIHTHKKL[dF]KKILKK(Butyryl)L-NH2) | 0.47 ± 0.13 cm | 1.03 ± 0.06 cm | 1.17 ± 0.06 cm | 2.07 ± 0.11^d fold | 0.81 ± 0.30 fold | 0.80 ± 0.07 fold | 2.25 ± 0.12^d fold | 7.36 ± 1.05^d fold | 1.29 ± 0.19^d fold | 1.99 ± 0.11^d fold | 1.46 ± 0.11 fold | 0.64 ± 0.36 fold |  |  |  |
| RINSAKDDAAGLQIA-OH [flg15, plant defense elicitor peptide, 15 amino acids of the N-terminal conserved domain of bacterial flagellin; monomer] | 0 ± 0 cm | 0 ± 0 cm | 0 ± 0 cm | 8.14 ± 2.48^d fold | 1.09 ± 0.44 fold | 6.05 ± 2.40^d fold | 4.28 ± 1.49^d fold | 17.68 ± 4.18^d fold | 9.26 ± 2.06^d fold | 6.24 ± 2.25^d fold | 1.41 ± 0.84 fold | 8.32 ± 3.35^d fold |  |  |  |
| YGIHTH-NH2 [PIP1, plant defense elicitor peptide identified through combinatorial chemistry; monomer] |  |  |  | 1.99 ± 0.40^d fold | 0.58 ± 0.11^d fold | 0.96 ± 0.32 fold | 1.97 ± 0.45^d fold | 3.59 ± 1.35^d fold | 1.13 ± 0.26 fold | 1.23 ± 0.18 fold | 0.94 ± 0.35 fold | 1.00 ± 0.39 fold | 0 ± 0 cm | 0 ± 0 cm | 0 ± 0 cm |
